From ChEMBL document CHEMBL4706628, “Ligand-based optimization to identify novel 2-aminobenzo[d]thiazole derivatives as potent sEH inhibitors with anti-inflammatory effects” (Eur J Med Chem, 2021) come the findings set out here.

In data set [1] the target is T1, Bifunctional epoxide hydrolase 2 (Homo sapiens) (UniProt P34913).
T1 sequence (whole entry): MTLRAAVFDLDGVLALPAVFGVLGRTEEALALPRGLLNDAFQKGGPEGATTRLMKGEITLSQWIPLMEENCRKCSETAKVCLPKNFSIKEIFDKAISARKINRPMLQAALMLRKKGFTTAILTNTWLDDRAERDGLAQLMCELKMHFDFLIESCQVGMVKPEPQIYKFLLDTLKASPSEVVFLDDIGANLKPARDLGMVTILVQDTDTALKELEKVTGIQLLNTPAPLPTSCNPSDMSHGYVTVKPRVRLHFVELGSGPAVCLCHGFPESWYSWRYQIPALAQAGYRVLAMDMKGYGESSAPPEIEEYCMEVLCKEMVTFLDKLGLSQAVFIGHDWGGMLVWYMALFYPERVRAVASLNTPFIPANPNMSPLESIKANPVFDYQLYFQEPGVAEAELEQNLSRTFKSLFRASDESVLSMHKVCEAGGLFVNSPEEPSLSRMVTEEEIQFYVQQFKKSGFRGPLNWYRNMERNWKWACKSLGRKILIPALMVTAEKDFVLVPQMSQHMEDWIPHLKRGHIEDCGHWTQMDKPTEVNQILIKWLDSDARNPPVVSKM
The data set can be described thus: Inhibition of recombinant human sEH at 100 nM using PHOME as substrate measured after 15 mins by fluorescence assay relative to control.

The target in data set [2] is T2, Bifunctional epoxide hydrolase 2 (Homo sapiens, UniProt P34913).
T2 sequence (P34913 whole entry): T1 sequence (whole entry)
The data set can be described thus: Inhibition of recombinant human sEH using PHOME as substrate measured after 15 mins by fluorescence assay.

Data set [3] in a line: in vitro. The conditions noted are these: Sprague-Dawley, rat, liver microsomes. (Liver microsomes are vesicles of endoplasmic reticulum, rich in cytochrome P450 enzymes.)
A short description of data set [4]: in vitro. The conditions noted are these: Sprague-Dawley, rat, liver microsomes. This is another data set of the same source.
Description: Half life in Sprague-Dawley rat liver microsomes at 10 uM measured up to 60 mins in presence of NADPH regenerating system by HPLC analysis
Data set [5] is described as follows: in vitro. The conditions noted are these: Sprague-Dawley, rat, liver microsomes. The source holds these as a separate data set.
Description: Stability in Sprague-Dawley rat liver microsomes assessed as parent compound remaining at 10 uM measured after 60 mins in absence of NADPH regenerating system by HPLC analysis
The nature of data set [6]: in vitro. Particulars: Sprague-Dawley, rat, liver microsomes. The source holds these as a separate data set.
A short description of data set [7]: in vitro. Particulars: Sprague-Dawley, rat, liver microsomes. This is another data set of the same source.
Description: Stability in Sprague-Dawley rat liver microsomes assessed as parent compound remaining at 10 uM measured after 60 mins in presence of NADPH regenerating system by HPLC analysis

As usually defined, the inhibition is the change of the read-out against control, counted positive when it falls. One may read the IC50 as the concentration needed to halve the response being measured. In the case of `CCN(CC)CCN(C(=O)Nc1ccc(Cl)cc1)c1ccc2nc(N)sc2c1`, the inhibition in data set [1] was 86.3%. Also, the concentration for half-maximal inhibition (IC50) in data set [2] turned out to be 24.5 nM.

For `Nc1nc2ccc(NC(=O)Nc3ccc(Cl)cc3)cc2s1`, in data set [1], the inhibition is 76.1%. Also, the 50% inhibitory concentration (IC50) in data set [2] was found to be 10.1 nM.

For the molecule `CC(C)Oc1ccc(NC(=O)N(CCN2CCOCC2)c2ccc3nc(N)sc3c2)cc1`, the inhibition in data set [1] stood at 56.6%. In addition, the IC50 in data set [2] was 122 nM.

Take `O=C(NCc1ccc(Cl)cc1)Nc1nc2ccc([N+](=O)[O-])cc2s1`: in data set [1], the inhibition worked out at 10.9%.

Consider `Nc1nc2ccc(N(CCN3CCCC3)C(=O)Nc3ccc(Cl)cc3)cc2s1`, for which, in data set [1], the inhibition worked out at 48.3%.

For the molecule `CC(=O)Nc1ccc2nc(NC(=O)Nc3ccc(Cl)cc3)sc2c1`, the inhibition in data set [1] worked out at 12.5%.

For the molecule `Nc1nc2ccc(N(CCN3CCOCC3)C(=O)Nc3cccc(C(F)(F)F)c3)cc2s1`, the inhibition in data set [1] was found to be 6.18%.

Consider `Nc1nc2ccc(N(CCN3CCOCC3)C(=O)Nc3ccc(F)cc3)cc2s1`, for which the inhibition in data set [1] stood at 74.3%.

Turning to `Nc1nc2ccc(NC(=O)NC3CCCCC3)cc2s1`, in data set [1], the inhibition stood at 59.9%. Also, in data set [2], the IC50 came out at 4.1 nM.

As for `CCc1ccc(NC(=O)N(CCN2CCOCC2)c2ccc3nc(NC(=O)Cc4ccccc4F)sc3c2)cc1`, the inhibition in data set [1] stood at 85.2%. Besides, the IC50 in data set [2] turned out to be 5.4 nM.

On to `Nc1nc2ccc(N(CCN3CCOCC3)C(=O)Nc3ccc([N+](=O)[O-])cc3)cc2s1`, for which the inhibition in data set [1] is 19.2%.

`O=C(Cc1ccccc1)Nc1nc2ccc(N(CCN3CCOCC3)C(=O)Nc3ccc(F)c(Br)c3)cc2s1`: in data set [1], the inhibition amounted to 74.2%.

`Nc1nc2ccc(N(CCN3CCOCC3)C(=O)Nc3ccc(Cl)cc3Cl)cc2s1`: in data set [1], the inhibition stood at 58.4%.

Turning to `Nc1nc2ccc(N(CCN3CCOCC3)C(=O)Nc3ccccc3)cc2s1`, the inhibition in data set [1] turned out to be 40.4%.

Take `O=C(Nc1ccc(Cl)cc1)Nc1nc2ccc([N+](=O)[O-])cc2s1`: the inhibition in data set [1] was determined as 7.2%.

For the molecule `CN(C)CCN(C(=O)Nc1ccc(Cl)cc1)c1ccc2nc(N)sc2c1`, in data set [1], the inhibition was 39.1%.

For the molecule `COc1ccc(CC(=O)Nc2nc3ccc(N(CCN4CCOCC4)C(=O)Nc4ccc(Cl)cc4)cc3s2)cc1F`, the inhibition in data set [1] came out at 58.1%.

`Nc1ccc2nc(NC(=O)NCc3ccc(Cl)cc3)sc2c1`: the inhibition in data set [1] came to 14.2%.

Take `Nc1nc2ccc(NC(=O)Nc3ccccn3)cc2s1`: in data set [1], the inhibition is 20.5%.

Turning to `Nc1nc2ccc(N(CCN3CCOCC3)C(=O)Nc3cccc4ccccc34)cc2s1`, in data set [1], the inhibition amounted to 39%. For the same molecule, in data set [2], the IC50 was 151 nM.

As for `Nc1nc2ccc(NC(=O)Nc3ccccc3)cc2s1`, in data set [1], the inhibition worked out at 40.1%.

Regarding `O=C(Nc1ccc(Cl)cc1)Nc1nc2ccc(NCCN3CCOCC3)cc2s1`, the inhibition in data set [1] was found to be 16.2%.

In the case of `Nc1nc2ccc(N(CCN3CCOCC3)C(=O)Nc3ccccn3)cc2s1`, the inhibition in data set [1] was determined as 16.2%.

Take `Nc1nc2ccc(N(CCN3CCOCC3)C(=O)Nc3cccc(Cl)c3)cc2s1`: the inhibition in data set [1] worked out at 36.5%.

Regarding `O=C(Cc1ccc(F)cc1)Nc1nc2ccc(N(CCN3CCOCC3)C(=O)Nc3ccc(Cl)cc3)cc2s1`, the inhibition in data set [1] came to 74.9%.

For the molecule `COc1ccc(CC(=O)Nc2nc3ccc(N(CCN4CCOCC4)C(=O)Nc4ccc(Cl)cc4)cc3s2)cc1`, in data set [1], the inhibition stood at 65.8%.

Turning to `O=C(Cc1ccc(Cl)cc1)Nc1nc2ccc(N(CCN3CCOCC3)C(=O)Nc3ccc(Cl)cc3)cc2s1`, the inhibition in data set [1] came to 71.9%.

Consider `O=C(CCc1ccccc1)Nc1nc2ccc(N(CCN3CCOCC3)C(=O)Nc3ccc(Cl)cc3)cc2s1`, for which the inhibition in data set [1] was determined as 77.7%.

For `CC(=O)Nc1ccc(NC(=O)N(CCN2CCOCC2)c2ccc3nc(N)sc3c2)cc1`, the inhibition in data set [1] came to 59.4%.

For the molecule `Nc1nc2ccc(N(CCN3CCOCC3)C(=O)Nc3ccc(Br)cc3)cc2s1`, the inhibition in data set [1] was found to be 83.8%. Further, the IC50 in data set [2] amounted to 16.2 nM.

Regarding `Nc1nc2ccc(NC(=O)Nc3ccc(OC(F)(F)F)cc3)cc2s1`, the inhibition in data set [1] stood at 60.2%.

Consider `Nc1nc2ccc(N(CCN3CCCCC3)C(=O)Nc3ccc(Cl)cc3)cc2s1`, for which the inhibition in data set [1] came to 84.6%. Moreover, the half-maximal inhibitory concentration (IC50) in data set [2] was 6.5 nM.

As to `O=C(Nc1nc2ccc(N(CCN3CCOCC3)C(=O)Nc3ccc(Cl)cc3)cc2s1)C1CC1`, the inhibition in data set [1] was 32.5%.

As for `O=C(Cc1ccccc1F)Nc1nc2ccc(N(CCN3CCOCC3)C(=O)Nc3ccc(Cl)cc3)cc2s1`, the inhibition in data set [1] came to 82.5%. In addition, in data set [2], the IC50 turned out to be 4.08 nM.

As to `O=C(Cc1ccc(Br)cc1)Nc1nc2ccc(N(CCN3CCOCC3)C(=O)Nc3ccc(Cl)cc3)cc2s1`, in data set [1], the inhibition is 70.6%.

For `Nc1nc2ccc(N(CCN3CCOCC3)C(=O)Nc3ccc(OC(F)(F)F)cc3)cc2s1`, in data set [1], the inhibition is 61.3%.

As to `Cc1ccc(NC(=O)N(CCN2CCOCC2)c2ccc3nc(N)sc3c2)cc1`, the inhibition in data set [1] was 73.1%. Further, the IC50 in data set [2] worked out at 8.3 nM.

Regarding `CCc1ccc(NC(=O)N(CCN2CCOCC2)c2ccc3nc(N)sc3c2)cc1`, the inhibition in data set [1] was 84.7%. Besides, in data set [2], the IC50 worked out at 1.9 nM.

In the case of `O=C(Cc1ccccc1F)Nc1nc2ccc(N(CCN3CCOCC3)C(=O)Nc3ccc(F)c(Br)c3)cc2s1`, in data set [1], the inhibition was 73.8%.

Regarding `Nc1nc2ccc(N(CCN3CCOCC3)C(=O)NCc3ccc(Cl)cc3)cc2s1`, the inhibition in data set [1] was 14.5%.

Consider `Nc1nc2ccc(NC(=O)NC34CC5CC(CC(C5)C3)C4)cc2s1`, for which the inhibition in data set [1] was 77.3%. In addition, in data set [2], the IC50 was determined as 822 nM.

As for `Nc1nc2ccc(NC(=O)NCc3ccc(Cl)cc3)cc2s1`, in data set [1], the inhibition amounted to 47%.

Consider `Nc1nc2ccc(N(CCCN3CCOCC3)C(=O)Nc3ccc(Cl)cc3)cc2s1`, for which the inhibition in data set [1] came out at 9.44%.

In the case of `Cc1cccc(NC(=O)N(CCN2CCOCC2)c2ccc3nc(N)sc3c2)c1`, the inhibition in data set [1] amounted to 61.7%. Also, the half-inhibitory concentration (IC50) in data set [2] was determined as 101 nM.

As to `Nc1nc2ccc(N(CCN3CCOCC3)C(=O)Nc3ccccc3Cl)cc2s1`, the inhibition in data set [1] was found to be 59.7%.

Take `CC(=O)Nc1nc2ccc(N(CCN3CCOCC3)C(=O)Nc3ccc(Cl)cc3)cc2s1`: in data set [1], the inhibition came out at 68.1%.

On to `CC(C)c1ccc(NC(=O)N(CCN2CCOCC2)c2ccc3nc(N)sc3c2)cc1`, for which the inhibition in data set [1] came out at 75.2%. In addition, in data set [2], the IC50 worked out at 11.2 nM.

As for `Nc1nc2ccc(N(CCN3CCOCC3)C(=O)Nc3ccc(C(F)(F)F)cc3)cc2s1`, the inhibition in data set [1] is 62%.

For `CN1CCN(CCN(C(=O)Nc2ccc(Cl)cc2)c2ccc3nc(N)sc3c2)CC1`, the inhibition in data set [1] was determined as 45.9%.

What is called microsomal CLint is the rate of metabolic loss divided by the concentration. By half-life is commonly meant how long it takes for the measured level to halve. Low values mean rapid decline, high ones slow decline. A word on the share remaining: it is what is left of the initial amount, in per cent. Lower therefore signals more turnover. Take `O=C(O)Cc1ccccc1Nc1c(Cl)cccc1Cl` [DICLOFENAC]: the microsomal CLint at 1 h, 10 µM in data set [3] stood at 59.3 µL/min/mg; in data set [6], 107 µL/min/mg. In data set [4], the half-life at 1 h, 10 µM turned out to be 23.4 min. Further, the fraction remaining at 1 h, 10 µM in data set [5] is 96.3%; in data set [7], 16.9%.

For the molecule `CC1CCN(CCN(C(=O)Nc2ccc(Cl)cc2)c2ccc3nc(N)sc3c2)CC1`, the inhibition in data set [1] came out at 77.5%. For the same molecule, the IC50 in data set [2] was 20.2 nM.

`O=C(Nc1nc2ccc(N(CCN3CCOCC3)C(=O)Nc3ccc(Cl)cc3)cc2s1)c1ccccc1`: the inhibition in data set [1] stood at 48.8%.

With `CC(=O)Nc1ccc2nc(NC(=O)NCc3ccc(Cl)cc3)sc2c1`, in data set [1], the inhibition is 14.5%.

Turning to `Cc1ccccc1NC(=O)N(CCN1CCOCC1)c1ccc2nc(N)sc2c1`, the inhibition in data set [1] was 26.3%.

With `Nc1nc2ccc(NC(=O)Nc3cccc4ccccc34)cc2s1`, the inhibition in data set [1] came to 34.1%.

As for `CCc1ccc(NC(=O)N(CCN2CCOCC2)c2ccc3nc(NC(=O)Cc4ccccc4)sc3c2)cc1`, the inhibition in data set [1] came to 76.8%.

Consider `O=C(Cc1ccc(Cl)cc1Cl)Nc1nc2ccc(N(CCN3CCOCC3)C(=O)Nc3ccc(Cl)cc3)cc2s1`, for which, in data set [1], the inhibition was 71.8%.

As to `Nc1ccc2nc(NC(=O)Nc3ccc(Cl)cc3)sc2c1`, the inhibition in data set [1] came to 6.7%.

In the case of `O=C(Nc1nc2ccc(N(CCN3CCOCC3)C(=O)Nc3ccc(Cl)cc3)cc2s1)c1ccc(F)cc1`, the inhibition in data set [1] was 64%.

Turning to `CC(=O)c1ccc(NC(=O)N(CCN2CCOCC2)c2ccc3nc(N)sc3c2)cc1`, in data set [1], the inhibition was 28.2%.

Turning to `COc1ccc(NC(=O)Nc2ccc3nc(N)sc3c2)cc1`, the inhibition in data set [1] is 39.3%.

Take `CN1CCN(C(=O)Nc2nc3ccc(N(CCN4CCOCC4)C(=O)Nc4ccc(Cl)cc4)cc3s2)CC1`: in data set [1], the inhibition came to 64%.

For the molecule `NC(=O)Nc1ccc2nc(N)sc2c1`, the inhibition in data set [1] turned out to be 25.3%.
